SMILES strings stand for the structures.

The target in this assay is Tie-2 kinase (Homo sapiens, UniProt Q02763). Kind of assay: TIE-2 kinase flashplate assay (phosphorylation of poly(Glu, Tyr) with 33P-ATP). The class given is biochemical. As to conditions: read-out: Inhibition of TIE-2 IC50. Here is the method: The assay determines the inhibiting activity of the substances to be tested in the phosphorylation of the substrate poly(Glu, Tyr) by Tie-2 kinase in the presence of radioactive ^33P-ATP. The phosphorylated substrate binds to the surface of a “flashplate” microtitre plate during the incubation time. After removal of the reaction mixture, the microtitre plate is washed a number of times and the radioactivity on its surface is subsequently measured. An inhibiting effect of the substances to be measured results in lower radioactivity compared with an undisturbed enzymatic reaction.
Tie-2 kinase, sequence (Q02763 23-1124): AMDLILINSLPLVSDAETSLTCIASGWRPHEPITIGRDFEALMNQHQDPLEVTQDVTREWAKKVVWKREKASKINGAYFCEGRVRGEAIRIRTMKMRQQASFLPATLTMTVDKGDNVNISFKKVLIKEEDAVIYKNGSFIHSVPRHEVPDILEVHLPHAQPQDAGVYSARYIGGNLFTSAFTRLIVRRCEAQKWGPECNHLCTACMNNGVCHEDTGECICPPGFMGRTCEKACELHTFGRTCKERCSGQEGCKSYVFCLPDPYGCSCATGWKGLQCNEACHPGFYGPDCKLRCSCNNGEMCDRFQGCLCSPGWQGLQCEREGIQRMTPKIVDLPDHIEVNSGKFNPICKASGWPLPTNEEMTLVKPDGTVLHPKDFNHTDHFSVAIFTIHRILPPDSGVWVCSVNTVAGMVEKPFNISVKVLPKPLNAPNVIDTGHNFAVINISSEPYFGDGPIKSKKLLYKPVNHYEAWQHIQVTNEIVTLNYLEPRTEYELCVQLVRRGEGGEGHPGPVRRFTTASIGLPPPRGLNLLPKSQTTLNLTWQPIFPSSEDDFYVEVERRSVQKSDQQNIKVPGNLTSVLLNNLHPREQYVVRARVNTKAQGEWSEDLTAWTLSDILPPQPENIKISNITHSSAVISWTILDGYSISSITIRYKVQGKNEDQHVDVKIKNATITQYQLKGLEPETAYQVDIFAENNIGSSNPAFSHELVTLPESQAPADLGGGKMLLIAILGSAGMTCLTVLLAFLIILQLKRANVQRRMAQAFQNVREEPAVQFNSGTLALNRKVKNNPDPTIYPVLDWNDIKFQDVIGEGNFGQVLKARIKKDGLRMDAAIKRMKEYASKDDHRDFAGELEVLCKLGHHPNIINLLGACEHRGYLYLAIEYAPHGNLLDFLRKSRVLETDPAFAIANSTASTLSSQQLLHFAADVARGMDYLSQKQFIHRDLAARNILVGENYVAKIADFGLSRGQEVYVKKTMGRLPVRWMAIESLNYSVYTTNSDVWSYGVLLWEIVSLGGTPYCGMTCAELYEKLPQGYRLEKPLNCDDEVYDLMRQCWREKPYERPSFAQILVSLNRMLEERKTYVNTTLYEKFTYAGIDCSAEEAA
As for `FC(F)(F)c1cc(Br)c2nc(Nc3ccc(Oc4ccc5nsnc5c4)cc3)[nH]c2c1` [A1, [4-(benzo-1,2,5-thiadiazol-5-yloxy)phenyl](4-bromo-6-trifluoromethyl-1H-benzimidazol-2-yl)amine], the IC50 (as a rule, the concentration that gives 50% inhibition) was 220 nM.

For `FC(F)(F)c1cc(Cl)c2nc(Nc3ccc(Oc4ccc5nsnc5c4)cc3)[nH]c2c1` [No. 2], the IC50 amounted to 250 nM.

Turning to `Cc1cc(Oc2ccc(Nc3nc4c(Br)cc(C(F)(F)F)cc4[nH]3)cc2)c(C)c2sc(N)nc12` [No. 31], the IC50 amounted to 390 nM.

As for `Nc1nc2ccc(Oc3ccc(Nc4nc5cc(C(F)(F)F)cc(Cl)c5[nH]4)cc3)cc2s1` [No. 38], the IC50 worked out at 320 nM.
